The test system of assay [1] is U2OS cells. Put plainly: DR-GFP assay of HR-mediated repair. Type of assay: cell-based, Human. How it is done: Human U2OS, HCT116, hTERT RPE-1, HEK293T, HeLa, U87, T98G, A2780, and human skin fibroblast cells (GM08398 and GM18366) were grown in DMEM media supplemented with 10% bovine calf serum, penicillin/streptomycin and non-essential amino acids. SV40 large T antigen transformed hTERT RPE-1 cells were generated by infecting hTERT RPE-1 cells with a SV40 large T antigen (SV40 LT)-expressing retrovirus and were selected using 500 μg/ml G418. The stable SV40 large T antigen transformed hTERT RPE-1 cell line was then maintained in culture media supplemented 500 μg/ml G418. For chronic treatment with ATR inhibitor (ATRi, VE-821) or ATM inhibitor (ATMi, KU-55933), cells were maintained in media with 5 μM ATR or ATM inhibitor respectively for 8 days before cells were subjected to western blot analysis, proteomic analysis, DR-GFP/EJ5-GFP assay or immunofluorescent staining. For CHK1 inhibitor (UCN-01), cells were treated for 5 days with 0.2 μM of inhibitor before the analysis. Primary human fibroblast cells from control subjects (GM08398) and patients with Seckel syndrome (GM18366, ATR-defective) were obtained from Coriell Institute for Medical Research, Camden, N.J.
For the DR-GFP assay, cells (U2OS, HCT116, hTERT RPE-1, HEK293T, HeLa, U87, T98G, A2780, 293-T-REX-E2F6 cells and SV40 large T antigen transformed hTERT RPE-1) were transfected with the mCherry plasmid or DR-GFP reporter plasmid (pDR-GFP; addgene plasmid 26475) together with a plasmid coding for I-SceI (pCBASceI; addgene plasmid 26477) or DR-GFP reporter plasmid together with an empty plasmid pCAGGS. Two days after transfection, cells were trypsinized, resuspended in PBS and then analyzed by flow cytometry using FACSAria Fusion or Accuri C6 cytometer (BD). In each experiment, the percentage of GFP-positive cells from the sample transfected with empty plasmid pCAGGS was subtracted from the percentage of GFP-positive cells in the sample transfected with I-SceI. The GFP percentage was then normalized by the mCherry transfection efficiency. Each graph was plotted based on at least 3 independent experiments showing mean±SEM (N≥3). For the EJ5-GFP assay, EJ5-GFP reporter plasmid (pimEJ5GFP, addgene plasmid 44026) was used instead of DR-GFP reporter plasmid and the assay was performed as described for DR-GFP assay.

Assay [2] relates to U2OS cells. The experiment in a line: EJ5-GFP (NHEJ) assay. Format: cell-based, Human. The following applies: 5 μM ATRi, 8 days. On the procedure:
Human U2OS, HCT116, hTERT RPE-1, HEK293T, HeLa, U87, T98G, A2780, and human skin fibroblast cells (GM08398 and GM18366) were grown in DMEM media supplemented with 10% bovine calf serum, penicillin/streptomycin and non-essential amino acids. SV40 large T antigen transformed hTERT RPE-1 cells were generated by infecting hTERT RPE-1 cells with a SV40 large T antigen (SV40 LT)-expressing retrovirus and were selected using 500 μg/ml G418. The stable SV40 large T antigen transformed hTERT RPE-1 cell line was then maintained in culture media supplemented 500 μg/ml G418. […]
For the DR-GFP assay, cells (U2OS, HCT116, hTERT RPE-1, HEK293T, HeLa, U87, T98G, A2780, 293-T-REX-E2F6 cells and SV40 large T antigen transformed hTERT RPE-1) were transfected with the mCherry plasmid or DR-GFP reporter plasmid (pDR-GFP; addgene plasmid 26475) together with a plasmid coding for I-SceI (pCBASceI; addgene plasmid 26477) or DR-GFP reporter plasmid together with an empty plasmid pCAGGS. Two days after transfection, cells were trypsinized, resuspended in PBS and then analyzed by flow cytometry using FACSAria Fusion or Accuri C6 cytometer (BD). […]

Assay [3] concerns U2OS cells. The experiment in a line: Cell cycle analysis (propidium iodide, flow cytometry). The following applies: chronic 5 μM ATRi. Format: cell-based, Human. How it is done: Cells were harvested by standard trypsinization and fixed with 70% ethanol. After fixation, cells from each sample were resuspended in PBS, permeabilized using 0.1% Triton X-100 and treated with RNase A (0.8 mg/ml). Then cells were stained with propidium iodide and analyzed by flow cytometry using FACSAria Fusion (BD) or Accuri C6 cytometer (BD) to determine the fraction of cells in different stages of the cell cycle.

In the next assay the target is T1, ATR (Homo sapiens, UniProt Q13535).
T1 construct: endogenous in cells; host or cells: U2OS (human osteosarcoma)
T1 sequence (Q13535 whole entry): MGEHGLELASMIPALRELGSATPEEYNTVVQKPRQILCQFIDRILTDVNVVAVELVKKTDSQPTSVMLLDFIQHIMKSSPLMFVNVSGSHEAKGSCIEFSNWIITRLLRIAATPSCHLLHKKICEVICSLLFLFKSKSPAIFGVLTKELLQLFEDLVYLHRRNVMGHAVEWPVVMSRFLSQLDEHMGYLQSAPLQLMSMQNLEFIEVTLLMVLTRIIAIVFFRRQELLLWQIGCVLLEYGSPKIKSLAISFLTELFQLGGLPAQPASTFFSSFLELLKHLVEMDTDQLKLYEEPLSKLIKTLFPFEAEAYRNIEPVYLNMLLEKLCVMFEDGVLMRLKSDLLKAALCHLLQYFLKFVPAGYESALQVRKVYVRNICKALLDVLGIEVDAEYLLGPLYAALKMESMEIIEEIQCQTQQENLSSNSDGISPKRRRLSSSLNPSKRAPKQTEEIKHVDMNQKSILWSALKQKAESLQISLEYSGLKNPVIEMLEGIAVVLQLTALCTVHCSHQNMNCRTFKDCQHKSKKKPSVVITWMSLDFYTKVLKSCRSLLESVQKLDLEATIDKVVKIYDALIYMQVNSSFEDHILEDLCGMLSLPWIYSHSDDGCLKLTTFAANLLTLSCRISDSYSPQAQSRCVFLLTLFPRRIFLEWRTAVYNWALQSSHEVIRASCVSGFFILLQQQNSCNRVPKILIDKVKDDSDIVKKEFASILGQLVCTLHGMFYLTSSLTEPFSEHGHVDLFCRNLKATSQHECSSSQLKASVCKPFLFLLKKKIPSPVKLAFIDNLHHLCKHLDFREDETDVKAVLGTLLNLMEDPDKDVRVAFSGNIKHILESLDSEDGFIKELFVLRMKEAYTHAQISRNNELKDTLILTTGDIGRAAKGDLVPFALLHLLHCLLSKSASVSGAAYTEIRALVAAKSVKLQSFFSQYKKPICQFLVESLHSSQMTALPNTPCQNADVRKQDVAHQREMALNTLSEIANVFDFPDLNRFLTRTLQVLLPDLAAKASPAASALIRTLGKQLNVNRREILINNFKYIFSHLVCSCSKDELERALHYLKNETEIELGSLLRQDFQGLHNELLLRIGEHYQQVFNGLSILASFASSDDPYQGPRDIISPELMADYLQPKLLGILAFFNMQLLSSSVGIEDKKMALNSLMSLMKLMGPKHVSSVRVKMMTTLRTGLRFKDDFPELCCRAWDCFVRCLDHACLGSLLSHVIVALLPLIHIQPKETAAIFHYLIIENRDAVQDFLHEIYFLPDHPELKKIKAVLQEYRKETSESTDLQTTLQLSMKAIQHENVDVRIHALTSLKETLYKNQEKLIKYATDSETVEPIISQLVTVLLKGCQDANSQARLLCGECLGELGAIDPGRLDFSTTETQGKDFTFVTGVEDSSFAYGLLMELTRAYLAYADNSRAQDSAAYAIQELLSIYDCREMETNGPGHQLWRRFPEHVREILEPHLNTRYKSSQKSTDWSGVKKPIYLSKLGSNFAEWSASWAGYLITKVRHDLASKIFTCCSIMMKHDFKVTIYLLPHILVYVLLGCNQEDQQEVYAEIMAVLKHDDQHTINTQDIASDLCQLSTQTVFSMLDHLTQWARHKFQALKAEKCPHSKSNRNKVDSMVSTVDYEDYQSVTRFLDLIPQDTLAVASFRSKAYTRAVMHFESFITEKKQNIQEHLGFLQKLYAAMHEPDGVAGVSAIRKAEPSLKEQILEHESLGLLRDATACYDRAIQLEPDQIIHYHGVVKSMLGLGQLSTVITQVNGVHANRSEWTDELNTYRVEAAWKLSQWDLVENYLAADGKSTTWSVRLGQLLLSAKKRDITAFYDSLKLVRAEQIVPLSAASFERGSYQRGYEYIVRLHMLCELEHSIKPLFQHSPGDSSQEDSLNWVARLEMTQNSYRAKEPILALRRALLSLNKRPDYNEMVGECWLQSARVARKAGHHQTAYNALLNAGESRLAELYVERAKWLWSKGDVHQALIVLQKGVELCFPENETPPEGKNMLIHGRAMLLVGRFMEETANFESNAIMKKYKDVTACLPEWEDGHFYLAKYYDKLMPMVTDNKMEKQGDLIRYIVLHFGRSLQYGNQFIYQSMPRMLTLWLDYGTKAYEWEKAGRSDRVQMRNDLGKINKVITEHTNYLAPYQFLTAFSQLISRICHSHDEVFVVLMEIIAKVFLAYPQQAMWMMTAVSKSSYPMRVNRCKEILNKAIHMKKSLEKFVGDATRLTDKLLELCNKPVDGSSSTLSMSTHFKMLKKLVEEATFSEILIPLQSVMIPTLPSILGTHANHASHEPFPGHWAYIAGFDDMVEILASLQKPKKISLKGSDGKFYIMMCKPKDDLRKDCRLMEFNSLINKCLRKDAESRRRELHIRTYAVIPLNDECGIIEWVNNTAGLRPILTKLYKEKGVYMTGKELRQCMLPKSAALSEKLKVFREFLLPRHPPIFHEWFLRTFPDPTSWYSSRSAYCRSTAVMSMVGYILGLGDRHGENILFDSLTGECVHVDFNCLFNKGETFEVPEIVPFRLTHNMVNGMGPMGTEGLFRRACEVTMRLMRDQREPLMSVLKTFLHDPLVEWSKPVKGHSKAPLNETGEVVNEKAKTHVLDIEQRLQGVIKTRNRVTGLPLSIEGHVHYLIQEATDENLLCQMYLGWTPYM
T1 sequence (Q8WXE1 whole entry partner): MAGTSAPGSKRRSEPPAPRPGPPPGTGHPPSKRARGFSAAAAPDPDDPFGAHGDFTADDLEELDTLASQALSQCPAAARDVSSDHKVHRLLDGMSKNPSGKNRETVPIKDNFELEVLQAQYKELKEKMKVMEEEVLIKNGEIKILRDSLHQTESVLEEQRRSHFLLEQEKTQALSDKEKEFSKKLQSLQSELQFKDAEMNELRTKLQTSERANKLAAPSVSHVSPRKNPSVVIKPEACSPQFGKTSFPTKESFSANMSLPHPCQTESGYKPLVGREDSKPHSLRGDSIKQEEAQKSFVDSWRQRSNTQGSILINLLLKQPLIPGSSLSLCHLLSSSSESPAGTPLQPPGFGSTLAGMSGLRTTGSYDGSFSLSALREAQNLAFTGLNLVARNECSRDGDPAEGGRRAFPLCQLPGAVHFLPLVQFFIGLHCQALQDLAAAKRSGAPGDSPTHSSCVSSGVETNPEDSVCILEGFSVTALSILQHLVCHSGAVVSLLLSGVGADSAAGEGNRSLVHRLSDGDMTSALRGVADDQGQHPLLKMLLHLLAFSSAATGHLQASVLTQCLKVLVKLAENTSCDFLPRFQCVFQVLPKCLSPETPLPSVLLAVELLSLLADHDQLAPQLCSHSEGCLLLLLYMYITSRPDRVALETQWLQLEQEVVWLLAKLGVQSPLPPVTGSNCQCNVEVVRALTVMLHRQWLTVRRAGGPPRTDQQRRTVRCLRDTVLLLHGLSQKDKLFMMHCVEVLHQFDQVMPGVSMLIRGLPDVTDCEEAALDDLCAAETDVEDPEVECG
Put plainly: Western blot of phospho-CHK1(S345) in HU-treated cells. Format: cell-based. The following applies: 5 μM ATRi; HU-treated U2OS cells. On the procedure: FIG. 3 is a Western Blot (“WB”) of U2OS cells treated with ATRi for 30 minutes prior to a 3-hour HU treatment. WB analysis was performed against phospho-CHK1(S345), CHK1 and Actin.
Cells were harvested and lysed in modified radioimmunoprecipitation assay (RIPA) buffer (50 mM Tris-HCl pH 7.5, 150 mM NaCl, 1% tergitol, 0.25% sodium deoxycholate, 5 mM EDTA) supplemented with Complete EDTA-free protease inhibitor cocktail (Roche), 1 mM PMSF, 5 mM sodium fluoride, 10 mM β-glycerol-phosphate and 0.4 mM sodium orthovanadate. Whole cell lysates were cleared with 5 minute centrifugation at 13,000 rpm at 4° C. and mixed with 3×SDS sample buffer (bromophenol blue, stacking gel buffer, 50% glycerol, 3% SDS and 60 mM DTT). After being resolved on SDS-PAGE gels, proteins were then transferred onto polyvinylidene difluoride (PVDF) membranes and detected with designated antibodies.
In general terms: Immunoblotting shows a protein as a band on a membrane.

Assay [4] deals with U2OS cells. The experiment in a line: Real time PCR of mRNA levels. The following applies: normalized to GAPDH. Type of assay: cell-based, Human. The source says:
FIG. 9B is a bar graph showing the analysis of HR-mediated repair using the DR-GFP system. Relative fold change of GFP positive U2OS cells treated with CHK1i compared to DMSO treatment control. (Error bars=SEM, N=4, ****P-value<0.0001; one sample-t-test was used for the statistical analysis). FIGS. 9C-9D show a histogram showing representative FACS data (FIG. 9C) and a bar graph showing quantitation of G1, S and G2/M population for cell cycle analysis of CHK1i treated cells (FIG. 9D) (Error bars=SD, N=3). FIG. 9E are bar graphs showing real time PCR analysis of total RNA extracted from U2OS cells treated with DMSO, ATRi (5 μM for 8 days) or CHK1i (0.2 μM for 5 days). Values were normalized to GAPDH mRNA levels. (Error bars=SD, N=3). FIG. 9F is a schematic diagram showing a proposed model of how E2F transcription is regulated through ATR-CHK1 signaling. […] FIG. 9H is a bar graph showing DR-GFP analysis of 293-T-REX-E2F6 cells after 8 days of treatment with DMSO or doxycycline. (Error bars=SEM, N=4). FIG. 9I is a histogram showing cell cycle analysis of 293-T-REX-E2F6 cells after 8 days of treatment with DMSO or doxycycline. FIG. 9J is a schematic diagram showing a model depicting multiple roles of ATR in the control of HR capacity.
Cells cultured from 10 cm dish were collected and lysed in 1 ml of TRIzol (Invitrogen). Chloroform was added to the lysed sample to separate RNA. Separated RNA was precipitated by isopropyl alcohol, followed by two washes with 75% ethanol. 1 μg of extracted RNA from each sample was then reverse transcribed with Bio-Rad iScript cDNA synthesis kit. The samples (˜100 ng) were analyzed in a Roche 480 light cycler in a total of 15 μl containing SYBR green mix and primers. The values were calculated using “absolute quantification/2nd derivative max” in lightcycler 480 program and then normalized to the level of GAPDH.

Another assay concerns U2OS cancer cells. The experiment in a line: Crystal violet staining survival assay. The following applies: after 8 days of treatment, 2 or 8 days drug-free. Format: cell-based, Human.

Structures are written as SMILES. Entries after “also recorded” stand apart in the source; their conditions may differ.

Protocol for U2OS cancer cells: First, cells were treated for 5 days with either DMSO or 5 μM ATR inhibitor. Next, 1×10^5 cells of each cell type were plated onto a 10 cm dish and further treated with DMSO, ATR inhibitor and/or PARP inhibitor for additional 3 days. Cells were either fixed or allowed to recover after additional 2 or 8 days in drug-free media.
First, hTERT RPE-1, U2OS, HCT116, HeLa, A2780, or U87 cells were treated for 5 days with either DMSO or 5 μM ATR inhibitor. Next, 1×10^5 cells of each cell type were plated onto a 10 cm dish and further treated with DMSO, ATR inhibitor, and/or PARP inhibitor for an additional 3 days. Cells were then washed with PBS and either fixed in 100% methanol for 15 minutes at 4° C. or fixed after additional 2 or 8 days of culture in drug-free media. Fixed plates were stained with 0.1% crystal violet solution overnight followed by a distilled water wash. Pictures were taken after the plates were dried. For quantitation of cell viability, total viable cells were counted using a hematocytometer after indicated treatment.

With `CS(=O)(=O)c1ccc(-c2cnc(N)c(C(=O)Nc3ccccc3)n2)cc1` [ATRi, VE-821], in the assay with U2OS cells [1] (5 μM, chronic 8 days), the “HR-mediated repair efficiency (DR-GFP, GFP positive cells over DMSO)” value is given as “strikingly more severe impairment in HR-mediated repair as compared to short-term ATR inhibition”. Moreover, the “HR (DR-GFP) upon short-term ATR inhibition” value with U2OS cells [1] (short-term (2 days) ATRi) is “modest reduction in HR”. In the assay with U2OS cells [2], the “NHEJ efficiency (EJ5-GFP)” value is recorded as “does not result in a significant change in NHEJ efficiency”. In addition, in the assay with U2OS cells [3], the “Cell cycle distribution (S-phase cells)” value was “minor increase in the number of S-phase cells; also recorded: slight increase in S phase cells”. Further, at ATR, the “ATR inhibition monitored by CHK1 phosphorylation” value is recorded as “almost complete ATR inhibition”. Also, the “mRNA levels of BRCA1 and RAD51” value with U2OS cells [4] (ATRi 5 μM 8 days or CHK1i 0.2 μM 5 days) is “reduction in the mRNA levels of BRCA1 and RAD51”. For the same compound, in the assay with U2OS cells [4] (ATRi 5 μM 8 days), the “mRNA levels of 53BP1” value is recorded as “major changes in the mRNA levels of 53BP1 were not observed”. Also, in the assay with U2OS cancer cells, the “Recovery in drug-free media (crystal violet)” value is listed as “recovered after switching to drug-free media”.

The values are drawn from US20190365745A1, “USE OF CHRONIC TREATMENT WITH ATR INHIBITORS TO SENSITIZE CANCER CELLS TO PARP INHIBITORS” (Cornell University, priority 2018, published 2019).
